Molecular target: T1, human HSD17B13 (Homo sapiens, UniProt Q7Z5P4)
T1 sequence (Q7Z5P4 20-300): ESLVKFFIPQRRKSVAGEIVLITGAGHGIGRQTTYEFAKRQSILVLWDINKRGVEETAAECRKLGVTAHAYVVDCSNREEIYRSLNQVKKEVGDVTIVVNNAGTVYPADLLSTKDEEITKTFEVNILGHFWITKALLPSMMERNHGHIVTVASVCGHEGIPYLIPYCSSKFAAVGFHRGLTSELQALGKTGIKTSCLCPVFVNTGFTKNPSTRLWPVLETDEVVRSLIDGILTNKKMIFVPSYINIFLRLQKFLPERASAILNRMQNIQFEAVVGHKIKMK
Assay: Substrate screening of steroid and bioactive lipid libraries against purified recombinant HSD17B13 (NADH-linked luciferase assay)
Format: biochemical
Conditions: Bioactive Lipid Library; for HSD17B13 Enzymatic Activity Relative Light Units: 5 μM bioactive lipid (Estradiol Control 50 μM), 500 μM NAD+, 100 ng enzyme, 3 hours at 23° C.; for HSD17B13 Enzymatic Activity Percent Estradiol Control: 5 μM bioactive lipid, normalized to 50 μM estradiol after subtraction of 5% DMSO
Procedure: To understand the functional consequences of premature truncation of the HSD17B13 protein due to rs72613567:TA (the associated variant, rs72613567, is an insertion of an adenine adjacent to the donor splice site of exon six (TA allele)), the enzymatic activity of isoforms A and D was evaluated in vitro using recombinant protein and nicotinamide […] dinucleotide as cofactor. Reactions were performed in a final volume of 40 μl of assay buffer (0.2 M Tris-HCl, pH 7.5) which contained 500 μM NAD^+, 5 μM bioactive lipid or 50 μM steroid (all in a final concentration of 5% DMSO), and 100 ng of recombinant human HSD17B13. Reactions were incubated for 3 hours, at 23° C., after which an equal volume detection reagent was added. Following a 1 hour incubation at 23° C., the relative light units (RLUs) were measured on an Envision Plate Reader (Perkin Elmer). Raw RLU values were normalized as percent of control (50 μM estradiol) following subtraction of negative control (5% DMSO) using the following formula: Percent of control (POC)=100×(Sample (RLU)−Negative CTRLaverage)/(Positive CTRLaverage−Negative CTRLaverage).

Row | Compound | HSD17B13 Enzymatic Activity Relative Light Units | HSD17B13 Enzymatic Activity Percent Estradiol Control
1 | 15-deoxy-Δ12,14-Prostaglandin J2-biotin | 252400 RLU | −2.43%
2 | CC/C=C\C/C=C\C/C=C\C/C=C\C/C=C\CC1OC1CCC(=O)OC (racemic) [(±)4(5)-EpDPA methyl ester] | 338320 RLU | 1.00%
3 | CCCCC/C=C\C/C=C\C/C=C\CC(O)C1CCCC(=O)O1 (racemic) [(±)5(6)-DiHET lactone] | 411120 RLU | 6.50%
4 | CCCCCC=CCC=CCC=CCC(O)C(O)CCCC(=O)O (racemic) [(±)5(6)-DiHET] | 353120 RLU | 4.93%
5 | CCCCC/C=C\C/C=C\C/C=C\C[C@H]1O[C@H]1CCCC(=O)NCCO (racemic) [(±)5(6)-EET Ethanolamide] | 450160 RLU | 9.45%
6 | CCCCC/C=C\C/C=C\C/C=C\CC1OC1CCCC(=O)O (racemic) [(±)5(6)-EET] | 360960 RLU | 5.51%
7 | CC/C=C\C/C=C\C/C=C\C/C=C\C=C\C(O)CCCC(=O)O (racemic) [(±)5-HEPE] | 344480 RLU | 4.85%
8 | CCCCC/C=C\C/C=C\C/C=C\C=C\C1CCCC(=O)O1 (racemic) [(±)5-HETE lactone] | 348120 RLU | 4.56%
9 | CCCCC/C=C\C/C=C\C/C=C\C=C\[C@@H](O)CCCC(=O)OC (racemic) [(±)5-HETE methyl ester] | 337600 RLU | 3.78%
10 | CCCCC/C=C\C/C=C\C/C=C\C=C\[C@@H](O)CCCC(=O)O (racemic) [(±)5-HETE] | 431960 RLU | 10.79%
11 | CC/C=C\C/C=C\C/C=C\C/C=C\C=C\C(O)C/C=C\CCC(=O)O (racemic) [(±)7-HDHA] | 361320 RLU | 5.54%
12 | CCCCC/C=C\C/C=C\CC(O)C(O)C/C=C\CCCC(=O)O (racemic) [(±)8(9)-DiHET] | 472120 RLU | 11.11%
13 | CC/C=C\C/C=C\C/C=C\C/C=C\CC(O)/C=C/C=C\CCC(=O)O (racemic) [(±)8-HDHA] | 773120 RLU | 36.16%
14 | CC/C=C\C/C=C\C/C=C\C=C\C(O)C/C=C\CCCC(=O)O (racemic) [(±)8-HEPE] | 472800 RLU | 13.83%
15 | CCCCC/C=C\C/C=C\C=C\C(O)C/C=C\CCCC(=O)O (racemic) [(±)8-HETE] | 592720 RLU | 22.75%
16 | CCCCC/C=C\CC(O)C(O)CCCCCCCC(=O)O (racemic) [(±)9(10)-DiHOME] | 391000 RLU | 4.98%
17 | CCCCC/C=C\CC1OC1CCCCCCCC(=O)O (racemic) [(±)9(10)-EpOME] | 354560 RLU | 2.23%
18 | CC/C=C\C/C=C\C/C=C\CC(O)/C=C/C=C\CCCC(=O)O (racemic) [(±)9-HEPE] | 699960 RLU | 30.72%
19 | CCCCC/C=C\C/C=C\CC(O)/C=C/C=C\CCCC(=O)O (racemic) [(±)9-HETE] | 1110120 RLU | 61.22%
20 | CCCCC/C=C\C=C\C(O)CCCCCCCC(=O)O (racemic) [(±)9-HODE] | 695320 RLU | 30.38%

Row | Compound | HSD17B13 Enzymatic Activity Relative Light Units | HSD17B13 Enzymatic Activity Percent Estradiol Control
21 | CC/C=C\C/C=C\C/C=C\C=C\C(O)C/C=C\C/C=C\CCC(=O)O (racemic) [(±)10-HDHA] | 801680 RLU | 38.28%
22 | CCCCC/C=C\CC(O)C(O)C/C=C\C/C=C\CCCC(=O)O (racemic) [(±)11(12)-DiHET] | 599000 RLU | 20.69%
23 | CC/C=C\C/C=C\C/C=C\CC(O)/C=C/C=C\C/C=C\CCC(=O)O (racemic) [(±)11-HDHA] | 1259280 RLU | 72.31%
24 | CCCCC/C=C\C=C\[C@H](O)CCCCCCCCCC(=O)O (racemic) [(±)11-HEDE] | 1334080 RLU | 77.87%
25 | CC/C=C\C/C=C\C=C\C(O)C/C=C\C/C=C\CCCC(=O)O (racemic) [(±)11-HEPE] | 791920 RLU | 37.56%
26 | CCCCC/C=C\C=C\C(O)C/C=C\C/C=C\CCCC(=O)O (racemic) [(±)11-HETE] | 767720 RLU | 35.76%
27 | CC/C=C\C/C=C\CC(O)/C=C/C=C\C/C=C\CCCC(=O)O (racemic) [(±)12-HEPE] | 761600 RLU | 35.30%
28 | CCCCC/C=C\C[C@H](O)/C=C/C=C\C/C=C\CCCC(=O)O (racemic) [(±)12-HETE] | 1324640 RLU | 77.17%
29 | CCCCC/C=C\CC(/C=C/C=C\C/C=C\CCCC(=O)O)OO (racemic) [(±)12-HpETE] | 165800 RLU | −9.27%
30 | CC/C=C\C/C=C\C=C\C(O)C/C=C\C/C=C\C/C=C\CCC(=O)O (racemic) [(±)13-HDHA] | 1154720 RLU | 64.54%
31 | CCCCCC(O)/C=C/C=C\CCCCCCCC(=O)O (racemic) [(±)13-HODE] | 954080 RLU | 49.62%
32 | CC/C=C\CC(O)C(O)C/C=C\C/C=C\C/C=C\CCCC(=O)O (racemic) [(±)14(15)-DiHETE] | 356480 RLU | 2.37%
33 | CCCCCC(O)C(O)C/C=C\C/C=C\C/C=C\CCCC(=O)O (racemic) [(±)14(15)-DiHET] | 403560 RLU | 5.93%
34 | CCCCCC1OC1C/C=C\C/C=C\C/C=C\CCCC(=O)O (racemic) [(±)14(15)-EET] | 305720 RLU | 1.41%
35 | CC/C=C\CC1OC1C/C=C\C/C=C\C/C=C\CCCC(=O)O (racemic) [(±)14(15)-EpETE] | 306600 RLU | 1.86%
36 | CCCCCC(O)/C=C/C=C\CCCCCCCCCC(=O)O (racemic) [(±)15-HEDE] | 1430720 RLU | 85.06%
37 | CC/C=C\CC(O)/C=C/C=C\C/C=C\C/C=C\CCCC(=O)O (racemic) [(±)15-HEPE] | 578600 RLU | 21.70%
38 | CCCCC[C@H](O)/C=C/C=C\C/C=C\C/C=C\CCCC(=O)O (racemic) [(±)15-HETE] | 47880 RLU | 30.81%
39 | CC/C=C\C[C@H]1O[C@H]1C/C=C\C/C=C\C/C=C\C/C=C\CCC(=O)O (racemic) [(±)16(17)-EpDPA] | 274120 RLU | −0.71%
